From PubChem BioAssay AID463206 (Broad Institute, 2010)
Calls of active or inactive are those of the source.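 How the source made its calls: active means caspase luminescence falls with dose and the half-maximal concentration AC50 from the fitted curve is at or below a set limit; inconclusive means flat fit at 30 to 70% signal loss, or invalid fit; inactive means AC50 above the limit, or signal rises instead.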

Tested on: INS-1E cytokine-induced caspase-3/7, Caspase-Glo luminescence, 48 h
Test: inhibitors of cytokine-induced caspase-3/7 activity, dose response, orthogonal assay for beta-cell apoptosis protection project, INS-1E rat cells, luminescence (AID 463206)

Row | Compound | AC50
1 | O=C(NCc1cccnc1)/C(=C/c1ccc(-c2cccc(Cl)c2)o1)S(=O)(=O)c1ccccc1 | > 26 µM (inactive)
2 | CCOC(=O)CC1CCCCN1C(=O)c1cc(COc2cccc3cnccc23)on1 (stereo not given) | > 26 µM (inactive)
3 | CC(C)c1ccc2c(c1)C(N1CCNCC1)Cc1ccc(F)cc1S2 (stereo not given) | > 26 µM (inactive)
4 | COc1ccc(C)cc1Nc1n[n+](-c2ccccc2)c(-c2c(Cl)cccc2Cl)s1 | > 26 µM (inactive)
5 | O=[N+]([O-])c1cccnc1N/N=C/c1ccccc1O | > 26 µM (inactive)
6 | Nc1nonc1-n1nnc(C(=O)N/N=C/c2ccccc2O)c1CN1CCCC1 | > 26 µM (inactive)
7 | Cc1ccnc(NC(=O)c2ccc([N+](=O)[O-])s2)c1 | > 26 µM (inactive)
8 | O=C(CN1CCOCC1)N/N=C/c1c(O)ccc2ccccc12 | > 26 µM (inactive)
9 | Cc1cc(N/N=C/c2ccc(O)cc2O)nc(-n2nc(C)cc2C)n1 | > 26 µM (inactive)
10 | CCOC(=O)C1CCN(C(=O)c2c(C)oc3c2C(=O)c2ccccc2C3=O)CC1 | > 26 µM (inactive)
11 | O=C(COc1ccc2ccccc2c1)N1CCN(Cc2c[nH]c3ccccc23)CC1 | > 26 µM (inactive)
12 | CCOC(=O)C1(Cc2cccc(Cl)c2)CCCN(C(=O)c2ccc(COC)s2)C1 (stereo not given) | > 26 µM (inactive)
13 | COC(=O)c1ccccc1NC1=C/C(=N\S(=O)(=O)c2cccs2)c2ccccc2C1=O | > 26 µM (inactive)
14 | CC(=O)Nc1ccccc1OCC(=O)c1cc(C)n(Cc2cccs2)c1C | > 26 µM (inactive)
15 | Cc1oc2c(c1C(=O)N1CCC(C)CC1)C(=O)c1ccccc1C2=O | > 26 µM (inactive)
16 | O=C(N/N=C(\Cc1ncc[nH]1)c1ccccc1)c1ccncc1 | > 26 µM (inactive)
17 | CCCCCc1cc(=O)oc2c(C(CCN(CC)CC)c3ccc(OC)cc3)c(OC)cc(OC)c12 (stereo not given) | 23.2 µM
18 | OCc1ccc(O)c2ncccc12 | > 26 µM (inactive)
19 | Nc1c(Cl)ncnc1N/N=C/c1ccccn1 | > 26 µM (inactive)
20 | CCCCC(=O)NC(c1ccc(N(C)C)cc1)c1ccc2cccnc2c1O (stereo not given) | > 26 µM (inactive)
21 | COc1cc(C(=O)N/N=C(\c2ccccc2)c2ccccn2)cc(OC)c1OC | > 26 µM (inactive)
22 | Nc1nc(N)c2cc(Sc3ccc4ccccc4c3)ccc2n1 | > 26 µM (inactive)
23 | O=C(N/N=C/c1cc(Br)c(Br)s1)c1ccncc1 | > 26 µM (inactive)
24 | CCC(/C=C1\Sc2ccc(OC)cc2N1CC)=C\c1sc2ccc(OC)cc2[n+]1CCCS(=O)(=O)[O-] | > 26 µM (inactive)

Row | Compound | AC50
25 | Cn1nnnc1Sc1ncnc2scc(-c3cc4ccccc4o3)c12 | > 26 µM (inactive)
26 | CCOc1cc(S(=O)(=O)NCc2ccncc2)ccc1Cl | > 26 µM (inactive)
27 | CCc1ccc(S(=O)(=O)/N=C2/C=C(Sc3ncn[nH]3)C(=O)c3ccccc32)cc1 | > 26 µM (inactive)
28 | Cc1nc2ccccc2n1/N=C/c1ccc([N+](=O)[O-])s1 | > 26 µM (inactive)
29 | COC(=O)[C@@H](Cc1ccccc1)N(Cc1ccccc1)S(=O)(=O)N(Cc1ccccc1)[C@H](Cc1ccccc1)C(=O)OC | > 26 µM (inactive)
30 | CC1CCN(C(=O)CCNS(=O)(=O)c2ccc(Br)cc2)CC1 | > 26 µM (inactive)
31 | O=S(=O)(C/C(=C/CO)S(=O)(=O)c1ccccc1)c1ccccc1 | 4.21 µM
32 | COc1cnc(-c2ccccn2)nc1Sc1ccc(C)cc1 | > 26 µM (inactive)
33 | Cc1ccccc1OCCCCn1cnc2ccccc21 | > 12 µM (inactive)
34 | c1ccc(-c2nc(N3CCCCCC3)c3ccccc3n2)nc1 | > 26 µM (inactive)
35 | COc1ccc(Br)cc1CN(C)CC(=O)NCc1ccc(F)cc1 | > 26 µM (inactive)
36 | Cc1ccc(C[n+]2cccc(-c3ccccc3)c2)c(C)c1 | > 26 µM (inactive)
37 | Cc1ccc(S(=O)(=O)N2CCOCC2)cc1C(=O)Nc1nc(-c2ccccn2)cs1 | > 26 µM (inactive)
38 | O=C(NCc1cccnc1)/C(=C\c1ccc(-c2ccc(Br)cc2)o1)S(=O)(=O)c1ccccc1 | > 26 µM (inactive)
39 | N#Cc1ccc(NC(=O)Nc2ccc(Cl)cc2)cc1 | > 26 µM (inactive)
40 | CC(C)c1ccc(/C=C(\c2nc3ccccc3[nH]2)S(=O)(=O)c2ccccc2)cc1 | > 26 µM (inactive)
41 | CSc1ccc(S(=O)(=O)Nc2ccc(N3CCOCC3)c(Cl)c2)cc1 | > 26 µM (inactive)
42 | C/C(=N/Nc1nc(-c2ccccc2)cc(-c2ccc(F)cc2)n1)c1cccc(N)c1 | > 26 µM (inactive)
43 | C=C1C(=O)O[C@@H]2C[C@@H](C)[C@@H]3C=CC(=O)[C@@]3(C)[C@@H](O)[C@H]12 | > 26 µM (inactive)
44 | CCOc1ccc(S(=O)(=O)N(C)c2ccc(OCC(=O)Nc3nc4ccccc4s3)cc2)cc1 | > 26 µM (inactive)
45 | CC(=O)c1ccc(OCc2cc(C(=O)N3CCCCC3c3cccnc3)no2)cc1 (stereo not given) | > 26 µM (inactive)
46 | CCNC(=O)Nc1cc(S(=O)(=O)Nc2ccc(OC)cc2)ccc1N1CCOCC1 | > 26 µM (inactive)
47 | FC(F)(F)c1cccc(-c2nc3nc(Cl)c(Cl)nc3[nH]2)c1 | > 26 µM (inactive)
48 | CCCCC(CC)CN1C(=O)/C(=C/c2ccncc2)SC1=S (stereo not given) | > 26 µM (inactive)

Row | Compound | AC50
49 | CCCCCc1ccc(OCCCC[n+]2ccccc2)c(CCCCC)c1 | > 26 µM (inactive)
50 | CCN(CC)c1ccc(N=Cc2ccc([N+](=O)[O-])o2)cc1 | > 26 µM (inactive)
51 | COc1ccc(-c2c[n+]3c4n2CCCCC4=C(c2ccc(Br)cc2)C3)cc1 | > 26 µM (inactive)
52 | O=C(Nc1nc(-c2ccccc2)cs1)c1ccccc1NS(=O)(=O)c1ccc(F)cc1 | > 26 µM (inactive)
53 | Cc1ccc(NC(=O)c2cc(S(=O)(=O)NCCC3=CCCCC3)ccc2F)cc1 | > 26 µM (inactive)
54 | COC(=O)c1ccc2c(c1)C(C)(C)C(/C=C/c1ccc(OC)c(OC)c1OC)=[N+]2C | > 26 µM (inactive)
55 | Cc1ccc(N2C(=O)CSC2c2cccnc2)c(Cl)c1 (stereo not given) | > 26 µM (inactive)
56 | CCOC(=O)c1ccc(-[n+]2c(-c3ccccc3)cc(-c3ccccc3)cc2-c2ccccc2)cc1 | > 26 µM (inactive)
57 | C/C(=N\NC(=O)c1ccccc1Cl)c1ccccn1 | > 26 µM (inactive)
58 | CC1CCC(C(C)C)C(OC(=O)Cn2c(-c3ccc(Cl)cc3)[n+](C)c3ccccc32)C1 (stereo not given) | > 26 µM (inactive)
59 | C/C(=N\NC(=O)c1cccc(Br)c1)c1ccccn1 | > 26 µM (inactive)
60 | COc1cccc(/C=N/NC(=O)c2c(C)nc3ccc(Br)cn23)c1O | > 26 µM (inactive)
61 | Cc1cc(C)c[n+](C2=C([O-])c3ccccc3C(=O)/C2=N\S(=O)(=O)c2cccs2)c1 | > 26 µM (inactive)
62 | Cc1ccc(S(=O)(=O)Nc2ccc(NC(=O)Nc3cccc(C(F)(F)F)c3)cc2)cc1 | > 26 µM (inactive)
63 | OC(COC(c1ccc(F)cc1)c1ccc(F)cc1)CN1CCc2ccccc2C1 (stereo not given) | > 26 µM (inactive)
64 | c1ccc(CN2CCN(Cc3c[nH]c4ccccc34)CC2)cc1 | > 26 µM (inactive)
65 | CCCNC(=O)c1ccc2c(=O)c(O)c(-c3ccc(Cl)c([N+](=O)[O-])c3)[nH]c2c1 | 3.22 µM
66 | CNC1=C(N(C(C)=O)c2ccc(Br)cc2)C(=O)c2ccccc2C1=O | > 26 µM (inactive)
67 | CCOC(=O)CS(=O)(=O)c1nc(-c2ccccc2)cc(C(F)(F)F)n1 | > 26 µM (inactive)
68 | O=[N+]([O-])c1cccc(-c2cn3nc(-c4ccccc4)c(-c4ccccc4)nc3n2)c1 | > 26 µM (inactive)
69 | COc1ccc(C(CCN2CCCCC2)c2c(OC)cc(OC)c3c(-c4ccccc4)cc(=O)oc23)cc1 (stereo not given) | 16.6 µM
70 | CN(C1=C(NC(=O)c2ccc(Cl)cc2)C(=O)c2ccccc2C1=O)c1ccccc1 | > 26 µM (inactive)
71 | Cc1occc1C(=O)N1CCCC(N2CCN(c3cccc(C(F)(F)F)c3)CC2)C1 (stereo not given) | > 26 µM (inactive)
72 | CCSc1ccc(NC(=O)c2cccnc2)cc1 | > 26 µM (inactive)

Row | Compound | AC50
73 | CC(C)(C)OC(=O)NCc1ccc(NC(=O)c2nc[nH]c2C(=O)NCCNC(=O)c2[nH]cnc2C(=O)Nc2ccc(CNC(=O)OC(C)(C)C)cc2)cc1 | > 26 µM (inactive)
74 | Cc1cccnc1Nc1nc(-c2ccccn2)cs1 | > 26 µM (inactive)
75 | Nc1cc2c3c(cccc3c1)C(=O)N(CCN1CCCC1)C2=O | 15.4 µM
76 | Cc1nnsc1-c1onc(C)c1C(=O)Nc1cc(Cl)cc(Cl)c1 | > 26 µM (inactive)
77 | Cc1cccc(NC2=C/C(=N/S(=O)(=O)c3cccs3)c3ccccc3C2=O)c1 | > 26 µM (inactive)
78 | Cc1ccc(C)c(S(=O)(=O)N2CCN(c3ncnc4sccc34)CC2)c1 | > 26 µM (inactive)
79 | CC(=O)Nc1ccc(NC2=C/C(=N/S(=O)(=O)c3cccs3)c3ccccc3C2=O)cc1 | > 26 µM (inactive)
80 | Fc1ccc(CN(Cc2ccccc2)C(c2cccs2)c2nnnn2C2CCCCC2)cc1 (stereo not given) | > 26 µM (inactive)
81 | Cc1ccc(N=Nc2ccc(O)c3ncccc23)cc1 | > 26 µM (inactive)
82 | COc1cc2nc(N3CCN(c4cc(C)ccc4C)CC3)nc(N)c2cc1OC | > 26 µM (inactive)
83 | Cc1ccc2nc(-c3ccccn3)c(Nc3ccccc3C)n2c1 | > 26 µM (inactive)
84 | CCN(CC)CCNC(=O)c1ccc2c(c1NCCO)C(=O)c1ccccc1C2=O | > 26 µM (inactive)
85 | Cn1nccc1C(=O)NC1CCCc2c1cnn2-c1ccc(C(C)(C)C)cc1 (stereo not given) | > 26 µM (inactive)
86 | CC(C)CN(C(=O)COC(=O)C12CC3CC(CC(Cl)(C3)C1)C2)c1c(N)n(Cc2ccccc2)c(=O)[nH]c1=O | > 26 µM (inactive)
87 | CCCC(=O)NC(c1ccccc1OC)c1ccc2cccnc2c1O (stereo not given) | > 26 µM (inactive)
88 | CCCN(CCC)c1nc(-c2ccccn2)nc2ccccc12 | > 26 µM (inactive)
89 | CCn1c(NN=O)nc2ccccc21 | > 26 µM (inactive)
90 | CCN(c1ccccc1)S(=O)(=O)c1ccc(C(=O)NC2CCN(Cc3ccccc3)CC2)cc1 | > 26 µM (inactive)
91 | O=C(NC(NC(=S)Nc1ccc(Cl)cc1Cl)C(Cl)(Cl)Cl)c1cccc([N+](=O)[O-])c1 (stereo not given) | > 26 µM (inactive)
92 | CCCSc1nsc(NC(=O)Nc2ccc(F)cc2F)n1 | > 26 µM (inactive)
93 | N#Cc1c2ccc([N+](=O)[O-])cc2[n+]([O-])n1-c1ccccc1 | > 26 µM (inactive)
94 | CCOC(=O)c1ccc(NC(=O)c2nc(S(=O)(=O)Cc3ccccc3)ncc2Cl)cc1 | > 26 µM (inactive)
95 | COc1ccccc1NCC(=O)N/N=C/c1c(O)ccc2ccccc12 | > 26 µM (inactive)
